Measured values taken from US20180049433A1, “SEMIOCHEMICAL COMPOSITIONS FOR THE PREVENTION OF HEMATOPHAGOUS DIPTERA INSECTS FROM LANDING AND BITING ANIMALS” (INSTITUTE DE RECHERCHE EN SEMIOCHIMIE ET ETHOLOGIE APPLIQUEE, priority 2015, published 2018).
“And” between values parts separate entries of the source, which are not always exact repeats. Equal values may be shown once. Read-outs that look alike come from different tables or passages of the source.

Assays:
[1] = test system: Culex pipiens quinquefasciatus; assay: Mosquito engorgement test on treated shaved guinea pigs, Culex pipiens quinquefasciatus; assay type: in vivo
Text: The tests were undertaken using experimental cages, which were composed of a plastic frame having the dimensions 29×29×29 cm. A sleeve of mosquito netting was placed over the cage. The sleeves of the netting were closed with rubber bands thus preventing light from entering the cages.
In each cage the mosquitoes had at their disposition a little water placed in a jar.
The mosquitoes that were used in this experiment were Culex pipiens quinquefasciatus. In each cage 50 female mosquitoes were introduced.
The day before the test 50 […] female mosquitoes were introduced into their experimental cage. The mosquitoes were deprived of a source of sugar at least twelve hours before the test.
The mosquitoes were collected by suction on the walls of the experimental cage with a mouth vacuum that was connected to a suction pump. To avoid errors, the mosquitoes were removed and introduced in lots of five. The sex was determined by observation of their antennas, since the male's antennas are more feathery.
Once the mouth vacuum was empty in the experimental cage the health of the mosquitoes was verified. To be used in the experiment, the mosquitoes had to be able to fly. Before the test the dead mosquitoes or those mosquitoes that could not fly were replaced with healthy ones.
Prior to starting the experiment the mosquitoes were tested to determine if the mosquitoes were ready to bite. This was verified by introducing a hand washed with soap and without any smell in the experimental cage. If more than three mosquitoes posed on the hand voluntarily within a delay of 30 seconds, then it was deemed that the mosquitoes were ready to bite. The hand was withdrawn when the three mosquitoes posed on it or when the 30 second time period was up. This test was repeated every minute for a maximum of 5 minutes, until a positive result was obtained. If no positive result was obtained the experiment was postponed.
A herd of guinea pigs males and females aging from 4 months to 3 years were used in the experiments. The guinea pig was anesthetized by injecting 1 mg/kg (live weight) of Zoletil® 20 in the thigh. A thin layer of Ocryl® gel was placed on the eyes of the guinea pigs.
The abdominal zone of the guinea pigs were carefully shaved from the teats to the base of the thorax. The area that was shaved was 8 cm from the base of the thorax to the teats by 6 cm from left to right of the guinea pig. This was done using a transparent template.
After shaking the sprayer containing the insect bite inhibiting semiochemical, each guinea pig was sprayed 3 times (0.5 ml total) in the center of the shaved region. After the first administration, the product was spread with the little finger, in which the hand is covered by a vinyl glove, towards the teats. After the second administration by spraying the product was spread with the gloved little finger towards the thorax. After the third administration by spraying the product was spread over the entire shaved surface. The product was permitted to dry for a period of five minutes.
At the bottom of the experimental cage a transparent sheet was placed in which a rectangle of 7 cm by 5 cm was cut in the center. Another cover sheet cut with the same dimensions as the transparent sheet was made and the two rectangles were superimposed on one another and stapled together with 8 staples.
The shaved zone of the guinea pig was centered over the rectangular transparent sheet and the guinea pigs were exposed to the mosquitoes for 30 minutes. See, FIGS. 2 and 3.
At the end of 30 minutes, the mosquitoes were recovered by mouth vacuum. They were then enclosed in a plastic bag that contained a paper soaked with ethyl acetate. After 3 minutes the mosquitoes were aligned on a strip of scotch tape that was labeled with the number of the experiment, the date, the name of the guinea pig in the experiment and the treatment that was applied.
Each treatment was tested with a control.

[2] = test system: Culex pipiens quinquefasciatus; assay: Mosquito engorgement test on treated cats, Culex pipiens quinquefasciatus; assay type: in vivo; details: cat
Experimental: Other tests were performed on guinea pigs and cats using combinations of D, which is 3-cyclopentyl propanoic acid, F, which is 3-cyclohexyl propanoic acid, X, which is 3-cyclohexyl 2-methyl propanoic acid and W, which is 3-cyclopentyl 2-methyl propanoic acid.
The same experiment was conducted in the same manner as in Example 4 using guinea pigs, chickens and cats. The mosquitoes used in this experiment were Culex sp, Aedes sp and Anopheles.
The procedure that was followed was that in Example 4, except that cats (Felis domesticus) were tested instead of guinea pigs. The mosquitoes that were used in this experiement were Culex pipiens quinquefasciatus and Aedes aegypti.

insects = details: cited from earlier work
[3] = guinea pig, solution 0.3%, dose 31 μg/cm^2, 30 min exposure
[4] = guinea pig, solution 0.3%, dose 33 μg/cm^2, 30 min exposure
[5] = solution 3.0%, dose 324 μg/cm^2, 30 min exposure
[6] = guinea pig, solution 0.1%, dose not given, 30 min exposure
[7] = guinea pig, solution 3.0%, dose 31 μg/cm^2, 30 min exposure
[8] = guinea pig, dose 31 μg/cm^2 (Table 7)

Compound: O=C(O)CCC1CCCC1 [3-CPP, 3-cyclopentyl propionic acid]
- % bites tested [1, 3]: 4% and 5% and 1% and 11%
- % efficacy [1, 3]: 94% and 85% and 91% and 82%
- % bites tested [1, 4]: 0%
- % efficacy [1, 4]: 100%
- % bites tested [1, 5]: 0%
- % efficacy [1, 5]: 100%
- % efficacy ([2]; 3.0%, dose 314 μg/cm^2): 100%
- Number of bites of the solution used ([2]; 3.0%, dose 314 μg/cm^2): 0%
- % efficacy ([2]; dose 32 μg/cm^2): 94% and 100%
- % efficacy ([2]; dose 324 μg/cm^2): 100%

Compound: O=C(O)CC1CCCCC1 [CHA, cyclohexyl acetic acid]
- % bites tested [1, 3]: 8%
- % efficacy [1, 3]: 86%

Compound: CCN(CC)C(=O)c1cccc(C)c1 [DEET, N,N-diethyl-meta-toluamide]
- protection time (insects; encapsulated DEET): up to 10 hours
- protection time (insects; product containing 4.75% of DEET): one and a half
- protection time (insects; product containing 23.8% of DEET): five

Compound: Cc1ncc(C[n+]2csc(CCO)c2C)c(N)n1 [Vit. B1, reference compound]
- % bites tested [1, 6]: 93%
- % efficacy [1, 6]: 2%

Compound: Cc1ncc(CO)c(CO)c1O [Vit. B6, reference compound]
- % bites tested [1, 6]: 87%
- % efficacy [1, 6]: −19%

Compound: CC1=CC[C@@H](C(C)(C)O)CC1 [alpha terpineol, reference compound]
- % bites tested [1, 3]: 32%
- % efficacy [1, 3]: 48%

Compound: CC12CCC(CC1)C(C)(C)O2 [eucalyptol, reference compound]
- % bites tested [1, 3]: 43%
- % efficacy [1, 3]: −14%

Compound: CC(C)=CCC/C(C)=C/CO [geraniol, reference compound]
- % bites tested [1, 3]: 25%
- % efficacy [1, 3]: 58%
- % bites tested [1, 7]: 0%
- % efficacy [1, 7]: 100%

Compound: C=C(C)[C@H]1CC=C(C)CC1 [limonene, reference compound]
- % bites tested [1, 3]: 58%
- % efficacy [1, 3]: −19%

Compound: CC(CC1CCCCC1)C(=O)O (stereo not shown) [methylated 3-CHP, 3-cyclohexyl 2-methyl propanoic acid]
- % efficacy [1, 8]: 67%

Compound: CC(CC1CCCC1)C(=O)O (stereo not shown) [methylated 3-CPP, 3-cyclopentyl 2-methyl propanoic acid]
- % efficacy [1, 8]: 89%

Compound: methylated cyclohexyl acetic acid [methylated CHA]
- % efficacy [1, 8]: 77%

Compound: pinene [reference compound]
- % bites tested [1, 3]: 23%
- % efficacy [1, 3]: 30%
